Tests used:
[1] = test system: cumulus-oocyte complexes (cumulus expansion); assay: Cumulus expansion assay in vitro; assay type: cell-based, mice; details: competing with PGE2
Protocol: 2.2 Cumulus Expansion Assay In Vitro
Folliculogenesis was induced in immature female mice (strain : CD1 (ICR) from Charles River) at an age of 14-18 days by a single dose (intraperitoneal) of 10 I.U. of PMSG (Pregnant Mare Serum Gonadotropin; Sigma G-4877, Lot 68H0909). 47-50 hours after the injection, the ovaries were removed and the cumulus-oocyte complexes were removed. The cumulus complex is not yet expanded at this stage.
The cumulus-oocyte complexes were then incubated with prostaglandin E2 (PGE2) (0.3 μM), vehicle control (ethanol) or test substances for 20-24 hours.
Medium: alpha-MEM medium with 0.1 mM IBMX, pyruvates (0.23 mM) glutamines (2 mM), pen/strep 100 IU/ml pen. and 100 μg/ml strep. and HSA (8 mg/ml). Cumulus expansion was then established through the division into four stages (according to Vanderhyden et al. Dev Biol. August 1990;140(2):307-317).

[2] = biological target: T1, human Prostaglandin E2 (Subtype EP2) receptor (Homo sapiens, UniProt P43116); assay: cAMP antagonism assay (HTRF cAMP detection, in presence of PGE2); assay type: cell-based; details: cAMP antagonism test
T1 construct: host or cells: cells in a cell culture plate
Excerpt: 1. Detection of the Antagonism of the Human Prostaglandin E2 (Subtype EP2) Receptor Signal
1.1 Principle of Detection
(§1) The binding of PGE2 to the EP2 subtype of the human PGE2 receptor induces activation of membrane-associated adenylate cyclases and leads to the formation of cAMP. In the presence of the phosphodiesterase inhibitor IBMX, cAMP which has accumulated due to this stimulation and been released by cell lysis is employed in a competitive detection method. In this assay, the cAMP in the lysate competes with cAMP-XL665 for binding of an Eu cryptate-labelled anti-cAMP antibody.
(§2) The two lo signals are measured in a suitable measuring instrument with a time lag, i.e. after the background fluorescence has declined.
1.2.1 Antagonism assay (data for each well of a 384-well plate):
The substance solutions (0.75 μl) introduced into an assay plate and 30% DMSO were dissolved in 16 μl of a KRSB+IBMX stimulation solution (1×Krebs-Ringer Bicarbonate Buffer; Sigma-Aldrich # K-4002; including 750 μM 3-isobutyl-1-methylxanthine Sigma-Aldrich # I-7018), and then 15 μl thereof were transferred into a media-free cell culture plate which had been washed with KRSB shortly beforehand.
After preincubation at room temperature (RT) for 30 minutes, 5 μl of a 4×PGE2 solution (11 nM) were added, and incubation was carried out in the presence of the agonist at RT for a further 60 min (volume: ˜20 μl) before the reaction was then stopped by adding 5 μl of lysis buffer and incubated at RT for a further 20 min (volume: ˜25 μl). The cell lysate was then transferred into a measuring plate and measured in accordance with the manufacturer's information (cyclic AMP kit Cisbio International #62AMPPEC).

[3] = biological target: T1, human Prostaglandin E2 (Subtype EP2) receptor; assay: cAMP agonism assay (cellular agonism test); assay type: cell-based
Excerpt: as §1, §2
1.2.2 Agonism Assay (Data for each Well of a 384-Well Plate): […]
After incubation at room temperature (RT; volume: ˜15 μl) for 60 minutes, the reaction was then stopped by adding 5 μl of lysis buffer and incubated at RT for a further 20 min (volume: ˜20 μl). The cell lysate was then transferred into a measuring plate and measured in accordance with the manufacturer's instructions (cyclic AMP kit Cisbio International #62AMPPEC).

T1 sequence (P43116 whole entry): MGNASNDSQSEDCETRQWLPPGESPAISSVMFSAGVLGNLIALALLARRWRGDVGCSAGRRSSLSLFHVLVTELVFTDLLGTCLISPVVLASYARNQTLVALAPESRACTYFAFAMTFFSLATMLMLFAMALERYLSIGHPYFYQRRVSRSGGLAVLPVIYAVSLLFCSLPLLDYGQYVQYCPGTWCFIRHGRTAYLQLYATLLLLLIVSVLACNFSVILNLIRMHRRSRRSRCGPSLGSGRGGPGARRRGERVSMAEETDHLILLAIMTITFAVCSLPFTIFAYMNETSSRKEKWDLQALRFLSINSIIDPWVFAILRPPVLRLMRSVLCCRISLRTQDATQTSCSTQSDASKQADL

| Compound | IC50 [2] [nM] | also measured |
| --- | --- | --- |
| CC(C)Oc1ccc2c(=O)c3cc(C(=O)O)ccc3oc2c1 [AH 6809, reference compound] |  | suppression of cumulus expansion ([1]; concentration of 100-200 μM): approx. 30% |
| Cc1[nH]c2c(Cl)cccc2c1CCNC(=O)c1cc2cc(F)ccc2[nH]1 [Example 7, N-[2-(7-chloro-2-methyl-1H-indol-3-yl)ethyl]-5-fluoro-1H-indole-2-carboxamide] | 47 | effect in the cellular agonism test [3]: no inhibition |
| COc1ccc(C(=O)NCCc2c(C)[nH]c3c(Cl)ccc(Cl)c23)cc1OC [Example 5, N-[2-(4,7-dichloro-2-methyl-1H-indol-3-yl)ethyl]-3,4-dimethoxybenzamide] | 1900 |  |
| COc1ccc(C(=O)NCCc2c(C)[nH]c3c(Cl)ccc(C)c23)cc1OC [Example 17, N-[2-(7-chloro-2,4-dimethyl-1H-indol-3-yl)ethyl]-3,4-di-methoxybenzamide] | 720 |  |

Further lines, with some results ahead:

| IC50 [2] [nM] | Compound | also measured |
| --- | --- | --- |
| 320 | COc1ccc(C(=O)NCCc2c(C)[nH]c3c(Cl)cccc23)cc1OC [Example 1, N-[2-(7-chloro-2-methyl-1H-indol-3-yl)ethyl]-3,4-dimethoxy-benzamide] |  |
| 670 | O=C(NCCc1c(C(F)(F)F)[nH]c2c(Cl)cccc12)c1cc2cc(Cl)ccc2[nH]1 [Example 30, N-[2-(7-chloro-2-trifluoromethyl-1H-indol-3-yl)ethyl]-5-chloro-1H-indole-2-carboxamide] |  |
| 120 | Cc1[nH]c2c(Cl)ccc(F)c2c1CCNC(=O)c1cc2cc(F)ccc2[nH]1 [Example 8, N-[2-(7-chloro-4-fluoro-2-methyl-1H-indol-3-yl)ethyl]-5-fluoro-1H-indole-2-carboxamide] | suppression of cumulus expansion ([1]; concentration 5 μM): approx. 60% |
